Test results as given in patent publication US4927658A, “Tris-hydroxymethyl alkane esters as low calorie fat mimetics” (Nabisco Brands, Inc., priority 1989, dated 1990).
Blank lines part the entries; values can stand above or below the molecule they belong to.

Columns and labels:
[1] = tested on: porcine pancreatic lipase; assay: in vitro digestibility using pancreatic lipase; assay type: in vitro ADME; details: 37° C., pH 7.1
Procedure: This example outlines the procedure for estimating the in vitro digestibility of the synthetic fat mimetics of this invention using pancreatic lipase.
1. Buffer: A pH 7.1 phosphate buffer is prepared by dissolving 6.8 g. KH2 PO4 in 1 L. of millipore filtered water (to yield 0.05M phosphate). Fifty mg. Ca(NO3)2 and 5.0 g. cholic acid (Na salt, an ox bile isolate from Sigma) are added to give 300 microM Ca^++ and 0.5% cholic acid in 0.05M phosphate. The pH is adjusted to approximately 7.1 with solid NaOH. Several drops of Baker "Resi-analyzed" toluene are added to prevent bacterial growth during storage at 3°-5° C.
2. Lipase: About 15 mg./mL commercial porcine pancreatic lipase from U.S. Biochemical Corporation is dissolved in buffer.
3. Substrates and Standards: A 1.0 mL volumetric flask is charged with an amount of lipid substrate (test substance or standard) calculated to give a concentration of 200 nanomoles per microliter in Baker "Resi-analyzed" toluene. (The proper concentration may be approximated by […] the molecular weight of the lipid in question, dividing by 10, and diluting to the mark; this yields about 200 nanomoles per microliter.) This preparation affords the substrate to be used in the hydrolysis reactions. […]

[2] = in vivo animal feeding study for caloric availability; design: species or system male Sprague-Dawley rats; details: rats, diet of 50% fort and 21% test compound, 14 days
Source text: This example illustrates how the novel fat mimetics of this invention are screened for caloric availability by a carefully controlled in vivo animal feeding study.
An experimental relationship between total calories ingested and animal body weight gain is established by monitoring the body weight gain associated with consumption of a nutritionally balanced diet containing varying concentrations of a reference substance such as corn oil which has a known caloric availability. Correlations between total calories ingested and body weight gain are excellent (r=0.99).
Caloric availability of an unknown substance is evaluated by substituting a specific weight of the unknown substance for the reference substance and observing the body weight gain. The gain in body weight is equated to a total number of calories using the correlation previously established for the reference data. The estimated number of calories ingested are divided by the weight of unknown substance to give the apparent calories per gram for the unknown substance. Generally speaking, in these bioavailability studies, the degree of perianal pelt soiling correlates with reduced bioavailability.
The test animals are six-week-old male Sprague-Dawley rats obtained from the Portage, Mich. facility of the Charles River Laboratories, Inc. After acclamation for 15 days, the test duration is 14 days. […]

pancreatic lipase = details: Minich, col. 4, lines 62-64; cited from earlier work
[3] = rat, in vivo; cited from earlier work

hydrolysis by pancreatic lipase ([1]; after three hours contact with pancreatic lipase): limited hydrolysis | caloric availability upon being metabolized [2]: about 3.3 kcal/gram
Molecule: CCCCCCCC/C=C\CCCCCCCC(=O)OCC(C)(COC(=O)CCCCCCC/C=C\CCCCCCCC)COC(=O)CCCCCCC/C=C\CCCCCCCC [Example 1, 1,1,1-Tris hydroxymethylethane trioleate]

Molecule: CCCCCCCC(=O)OCC(COC(=O)CCCCCCC)(COC(=O)CCCCCCC)COC(=O)CCCCCCC [pentaerythritol tetracaprylate]
hydrolysis by pancreatic lipase (pancreatic lipase): not attacked, hydrolyzed

hydrolysis by pancreatic lipase ([1]; triglyceride control, in 10 minutes): substantially hydrolyzed
Molecule: CCCCCCCC/C=C\CCCCCCCC(=O)OCC(COC(=O)CCCCCCC/C=C\CCCCCCCC)OC(=O)CCCCCCC/C=C\CCCCCCCC [triolein]

Molecule: corn oil
caloric availability of reference [3]: 9.0 calories/gram
